Assays:
[1] = Example 5: plasma uptake of DHE, sublingual tablet vs subcutaneous administration; format: in vivo, patient; conditions: plasma monitored 24 hours
Experimental: This example evaluates the uptake in sublingual vs. subcutaneous administration of DHE.
In this experiment one patient suffering from migraine pain is administered a migraine ameliorating dose of DHE as a sublingual tablet formulated as described in Example 1. The plasma concentration of DHE is monitored for a time of 24 hours after the administration. […] The rate and amount of DHE in the plasma is compared to that obtained by subcutaneous administration.

[2] = Plasma DHE after sublingual administration of DHE 45 dosing solution in a monkey; format: in vivo, Cynomogolius monkey
Experimental: In this example the intrinsic permeability of DHE was shown after it was sublingually administered DHE in a Cynomogolius monkey.
The test DHE was obtained from as DHE 45® Injection, USP (manufactured by Novartis). Specific information follows.
(§1) Prior to dose administration, the animal was restrained and anesthetized with an appropriate amount of ketamine. Using a calibrated pipette, 0.5 mL of dosing solution was placed under the animal's tongue immediately after swabbing excess saliva with a gauze pad (the gauze pad will be discarded). The animal's head was restrained for approximately 5 minutes in such a manner to minimize any loss of the dose solution through the animal's mouth or down the animal's throat.
Blood (approximately 1 mL) was collected from each animal prior to dosing (predose) and at 0.1, 0.2, 0.3, 0.4, 0.5, 1, 2, 4, 8, and 12 hours postdose. Blood was collected via a femoral vein into sodium-heparinized tubes.
Blood was maintained on wet ice, in chilled Kryoracks, or at approximately 5° C. prior to centrifugation to obtain plasma. Centrifugation was begin within 30 minutes of collection. The blood samples were centrifuged at approximately 5° C. for approximately 10 minutes at approximately 4,000 rpm. Plasma was harvested and stored on dry ice or at approximately −70° C. prior to shipment.
The plasma was assayed for DHE using standard techniques.

migraine symptoms [3] = assay: Example 4: sublingual DHE vs nasal administration of DHE in migraine patients; format: in vivo; conditions: 2 mg sublingual vs 2 mg nasally administered
Experimental: This example compares the effect on migraine of nasal administration of DHE vs. the sublingual administration of the present invention.
This experiment utilizes three test groups of patients. All of the patients are suffering from migraines. One group receives a 2 mg dose of sublingual DHE and placebo intranasal spray, the second group receives a 2 mg nasally administered dose of a pharmaceutical formulation comprising DHE and a placebo sublingual tablet, the third group receives a placebo sublingual tablet and a placebo intranasal spray. Results are compared between the active sublingual test group and the active nasal test group.

migraine symptoms [4] = assay: Example 3: sublingual DHE tablet vs subcutaneous injection of DHE in migraine patients; format: in vivo; conditions: 1 mg sublingual tablet vs 1 mg subcutaneous injection
Experimental: This example compares the effect on migraine of subcutaneous injection vs. the sublingual administration of the present invention.
This experiment utilizes three test groups of patients. All of the patients are suffering from migraines. One group receives a 1 mg dose of sublingual DHE tablet and a placebo subcutaneous injection, the second group receives a 1 mg subcutaneous injection of a pharmaceutical formulation comprising DHE and a placebo sublingual tablet, and the third group receives a placebo subcutaneous injection and a placebo sublingual tablet. Results are compared between the active sublingual test group and the active subcutaneous test group.

[5] = Mortality/moribundity checks and cageside observation after sublingual DHE; format: in vivo, Cynomogolius monkey; conditions: sublingual 0.5 mL of 1.0 mg/mL; throughout the study
Experimental: as §1
Mortality and moribundity checks were done twice daily (a.m. and p.m.). Cageside observation for general health and appearance was done once daily.

migraine symptoms [6] = assay: Example 2: sublingual DHE vs placebo in patients suffering from migraines; format: in vivo; conditions: 1 mg sublingual DHE
Experimental: This experiment utilizes two test groups of patients. All of the patients are suffering from migraines. One group receives a 1 mg dose of sublingual DHE, the other group receives a placebo. The DHE sublingual formulation is placed by the patients or medical professional under the tongue. The DHE sublingual formulation is allowed to dissolve fully. If the symptoms are not relieved within 20 to 40 minutes, a second dose is administered. Results are compared between the test group and the placebo group. […] The difference in amelioration of migraine symptoms are statistically significant.

[7] = oral forms of DHE; cited from earlier work
[8] = Example 6: two-way crossover, DHE tablet under the tongue vs orally with water; format: in vivo, healthy normal volunteers; conditions: tablet under the tongue vs orally with about 240 ml water; blood over 24 hour
Experimental: Each volunteer is administered DHE sublingual tablet manufactured as defined in this patent. In one treatment the tablet is administered under the tongue and in the crossover treatment the subject is administered the tablet orally with about 240 ml of water. Blood samples are taken serially over a 24 hour duration post administration and assayed for unchanged DHE and the principle 8-hydroxy DHE metabolite.

migraine = conditions: in vivo; cited from earlier work

Structure (SMILES) | time to maximum plasma concentration of DHE [1] [min] | half-life ([2]; cynomolgus, monkey, in vivo) [h] | Tmax ([2]; cynomolgus, monkey, in vivo, 0.5 mg, plasma, sublingual 0.5 mL of 1.0 mg/mL, read-out: Tmax (time point of maximum concentration) (converted)) [min] | detection of DHE in the blood plasma after sublingual administration ([2]; sublingual) | amelioration of migraine symptoms, sublingual vs nasal group (migraine symptoms [3]) | amelioration of migraine symptoms, sublingual vs subcutaneous group (migraine symptoms [4]) | observations for general health and appearance, mortality and moribundity [5] | amelioration of migraine symptoms compared to placebo control group (migraine symptoms [6]) | active unchanged drug that reaches the blood stream [7] | levels of active DHE, sublingual higher than oral [8] | efficacy in the treatment of migraine (migraine)
CN1C[C@H](C(=O)N[C@]2(C)O[C@@]3(O)[C@@H]4CCCN4C(=O)[C@H](Cc4ccccc4)N3C2=O)C[C@@H]2c3cccc4[nH]cc(c34)C[C@H]21 [DHE, Dihydroergotamine] | 30 to 60 | 2.2 | 5 | rapid detection of DHE in the blood plasma | equivalent amelioration of migraine symptoms | equivalent amelioration of migraine symptoms | No unusual observations | greater amelioration of migraine symptoms | 2-10% | at least 200% | 
CN(C)CCc1c[nH]c2ccc(Cn3cncn3)cc12 [rizatriptan] |  |  |  |  |  |  |  |  |  |  | 60-70%

— patent publication US6685951B2, “Administration of dihydroergotamine as a sublingual spray or aerosol for the treatment of migraine” (R. T. Alamo Ventures I, Inc., priority 2001, dated 2004)
